The subject of data set [1] is GM16216. Put plainly: Effect on ATP production in human GM16216 cells at 0.1 uM after 24 hrs by Vialight reagent based luminescence assay. It is filed as functional, cell-based.
For data set [2], the system named is GM15850. Put plainly: Effect on ATP production in human GM15850 cells at 0.1 uM after 24 hrs by Vialight reagent based luminescence assay. The class given is functional, cell-based.
Data set [3] concerns GM15850. Put plainly: Effect on mitochondrial membrane potential in human GM15850 cells assessed as loss of mitochondrial membrane potential at 0.25 uM after 16 hrs by JC1 staining based flow cytometry (reference value: 13%). It is filed as functional. For orientation: In flow cytometry, cells or beads pass a laser one at a time.
Data set [4] concerns GM15850. Nature of the data set: Increase in frataxin expression in human GM15850 cells at 50 nM after 24 to 48 hrs by ELISA. It is filed as functional, cell-based. (In general: An ELISA detects its analyte on a solid surface through an enzyme-linked reagent.)
Data set [5] has as its system GM16216. Nature of the data set: Effect on mitochondrial membrane potential in human GM16216 cells assessed as intact mitochondrial membrane at 0.25 uM after 16 hrs by JC1 staining based flow cytometry (reference value: 87%). It is filed as functional.
Data set [6] deals with GM16216. Put plainly: Effect on mitochondrial membrane potential in human GM16216 cells assessed as loss of mitochondrial membrane potential at 0.25 uM after 16 hrs by JC1 staining based flow cytometry (reference value: 13%). The class given is functional.
The test system of data set [7] is GM15850. Put plainly: Effect on mitochondrial membrane potential in human GM15850 cells assessed as intact mitochondrial membrane at 0.25 uM after 16 hrs by JC1 staining based flow cytometry (reference value: 87%). It is filed as functional.
Data set [8] relates to GM16216. Nature of the data set: Cytotoxicity against human GM16216 cells at 2.5 uM after 24 to 48 hrs by live/dead staining-based flow cytometry. It is filed as cell-based. The following applies: gm16216, 2.5 µM.
The test system of data set [9] is GM15850. Nature of the data set: Increase in frataxin expression in human GM15850 cells at 250 nM after 24 to 48 hrs by ELISA. The class given is functional, cell-based.
Data set [10] has as its system GM16216. Put plainly: Inhibition of ATP production in human GM16216 cells after 24 hrs by Vialight reagent based luminescence assay. The class given is functional, cell-based.
The test system of data set [11] is GM15850. Nature of the data set: Inhibition of ATP production in human GM15850 cells after 24 hrs by Vialight reagent based luminescence assay. It is filed as functional, cell-based.
Data set [12] deals with GM15850. Nature of the data set: Cytotoxicity against human GM15850 cells at 2.5 uM after 24 to 48 hrs by live/dead staining-based flow cytometry. The class given is cell-based. The conditions noted are these: gm15850, 2.5 µM.
Data set [13] deals with GM16216. Put plainly: Increase in frataxin expression in human GM16216 cells at 250 nM after 24 to 48 hrs by ELISA. The class given is functional, cell-based.
Data set [14] relates to GM16216. Nature of the data set: Increase in frataxin expression in human GM16216 cells at 50 nM after 24 to 48 hrs by ELISA. The class given is functional, cell-based.
The test system of data set [15] is GM16216. Nature of the data set: Induction of mitochondrial biogenesis in human GM16216 cells assessed as ratio of COX1 to SDH-A protein levels at 50 after 24 hrs by ELISA relative to control. The class given is functional.
For data set [16], the system named is GM15850. Nature of the data set: Effect on frataxin expression in human GM15850 cells at 50 nM after 24 hrs by ELISA relative to control. The class given is functional.
Data set [17] deals with GM16216. Nature of the data set: Induction of mitochondrial biogenesis in human GM16216 cells assessed as ratio of COX1 to SDH-A protein levels at 250 after 48 hrs by ELISA relative to control. It is filed as functional.
Data set [18] relates to GM15850. Nature of the data set: Induction of mitochondrial biogenesis in human GM15850 cells assessed as ratio of COX1 to SDH-A protein levels at 50 after 24 hrs by ELISA relative to control. It is filed as functional.
Data set [19] deals with GM16216. Put plainly: Effect on frataxin expression in human GM16216 cells at 250 nM after 24 hrs by ELISA relative to control. The class given is functional.
Data set [20] concerns GM15850. Put plainly: Effect on frataxin expression in human GM15850 cells at 50 nM after 48 hrs by ELISA relative to control. The class given is functional.
Data set [21] concerns GM15850. Nature of the data set: Restoration of total aconitase activity in human GM15850 cells at 250 nM after 5 days by colorimetric method relative to control. The class given is functional.
The test system of data set [22] is GM16216. Put plainly: Effect on frataxin expression in human GM16216 cells at 250 nM after 48 hrs by ELISA relative to control. It is filed as functional.
The subject of data set [23] is GM15850. Put plainly: Induction of mitochondrial biogenesis in human GM15850 cells assessed as ratio of COX1 to SDH-A protein levels at 50 after 48 hrs by ELISA relative to control. The class given is functional.
Data set [24] concerns GM15850. Put plainly: Induction of mitochondrial biogenesis in human GM15850 cells assessed as ratio of COX1 to SDH-A protein levels at 250 after 48 hrs by ELISA relative to control. It is filed as functional.
The subject of data set [25] is GM15850. Nature of the data set: Induction of mitochondrial biogenesis in human GM15850 cells assessed as ratio of COX1 to SDH-A protein levels at 250 after 24 hrs by ELISA relative to control. It is filed as functional.
Data set [26] has as its system GM15850. Nature of the data set: Effect on frataxin expression in human GM15850 cells at 250 nM after 24 hrs by ELISA relative to control. It is filed as functional.
For data set [27], the system named is GM16216. Nature of the data set: Restoration of total aconitase activity in human GM16216 cells at 250 nM after 5 days by colorimetric method relative to control. The class given is functional.
Data set [28] relates to GM15850. Nature of the data set: Effect on frataxin expression in human GM15850 cells at 250 nM after 48 hrs by ELISA relative to control. It is filed as functional.
The subject of data set [29] is GM16216. Nature of the data set: Induction of mitochondrial biogenesis in human GM16216 cells assessed as ratio of COX1 to SDH-A protein levels at 50 after 48 hrs by ELISA relative to control. It is filed as functional.
Data set [30] has as its system GM16216. Nature of the data set: Effect on frataxin expression in human GM16216 cells at 50 nM after 48 hrs by ELISA relative to control. The class given is functional.
The test system of data set [31] is GM15850. Put plainly: Restoration of total aconitase activity in human GM15850 cells at 50 nM after 5 days by colorimetric method relative to control. The class given is functional.
Data set [32] has as its system GM16216. Nature of the data set: Induction of mitochondrial biogenesis in human GM16216 cells assessed as ratio of COX1 to SDH-A protein levels at 250 after 24 hrs by ELISA relative to control. The class given is functional.
Data set [33] relates to GM16216. Nature of the data set: Restoration of total aconitase activity in human GM16216 cells at 50 nM after 5 days by colorimetric method relative to control. The class given is functional.
Data set [34] has as its system GM16216. Put plainly: Effect on frataxin expression in human GM16216 cells at 50 nM after 24 hrs by ELISA relative to control. It is filed as functional.
Data set [35] concerns GM16216. Nature of the data set: Cytoprotection against DEM-induced toxicity in human GM16216 cells assessed as increase in cell viability at 0.5 to 2.5 uM pretreated for 16 hrs followed by DEM addition and measured after 5 hrs by live/dead staining based flow cytometry. The class given is functional.
Data set [36] has as its system GM15850. Put plainly: Cytoprotection against DEM-induced toxicity in human GM15850 cells assessed as increase in cell viability at 0.5 to 2.5 uM pretreated for 16 hrs followed by DEM addition and measured after 5 hrs by live/dead staining based flow cytometry. It is filed as functional.

The source made the active and inactive calls. The calls are words filed in the database; no cut-off is given here.

For the compound `CCCCCCCCCCCc1cc2nc3ccc(N(C)C)cc3sc-2cc1=[N+](C)C.[I-]`, the result in the data set on GM16216 [1], in the data set on GM15850 [2], in the data set with GM15850 [9] and with GM16216 [13] was inactive. Also, the Activity with GM15850 [3] is on record as 18%; with GM16216 [5] it was 82%; with GM16216 [6] it was 18%; in the data set with GM15850 [7], 82%; in the data set on GM16216 [8], “Toxic”; in the data set with GM15850 [12], “Toxic”. Besides, the result with GM15850 [4] and with GM16216 [14] was Active. The inhibition result in the data set with GM16216 [10] and with GM15850 [11] was “Dose-dependent effect” in each case.
For `CCCCCCCCCCCCCCCN(CCCC)c1ccc2nc3ccc(=O)cc-3sc2c1`, the Activity with GM16216 [15] was 117%; in the data set on GM15850 [16] it was 116%; in the data set with GM16216 [17], 137%; with GM15850 [18], 117%; with GM16216 [19], 123%; in the data set with GM15850 [20] it was 121%. Further, the Activity with GM15850 [21] turned out to be 116%; with GM16216 [22] it was 127%; in the data set with GM15850 [23], 123%; in the data set on GM15850 [24], 137%; with GM15850 [25], 127%; in the data set with GM15850 [26] it was 123%. Further, the Activity was determined as 116% in the data set with GM16216 [27]; 127% with GM15850 [28]; 123% in the data set with GM16216 [29]; 121% with GM16216 [30]; 115% in the data set with GM15850 [31]; 127% with GM16216 [32]. Further, the Activity in the data set with GM16216 [33] is 115%; with GM16216 [34], 116%.
For the compound `CCCCCCCCCCCCCc1cc2nc3ccc(N(C)C)cc3sc-2cc1=[N+](C)C.[I-]`, the result in the data set with GM16216 [1] and in the data set on GM15850 [2] was inactive. The Activity was 18% with GM15850 [3]; 82% in the data set with GM16216 [5]; 18% with GM16216 [6]; 82% in the data set on GM15850 [7]; “Toxic” in the data set on GM16216 [8]; “Toxic” in the data set on GM15850 [12]. In addition, the result in the data set with GM16216 [35] and in the data set with GM15850 [36] was Active. In addition, the inhibition entry with GM16216 [10] and with GM15850 [11] was “Dose-dependent effect” each time.
In the case of `CCCCCCCCCCCCCCCN(C)c1ccc2nc3ccc(=O)cc-3sc2c1`, the Activity with GM16216 [15] is recorded as 120%; in the data set with GM15850 [16], 114%; with GM16216 [17], 137%; with GM15850 [18] it was 120%; in the data set with GM16216 [19] it was 118%; in the data set with GM15850 [20], 120%. Moreover, the Activity is recorded as 123% in the data set with GM15850 [21]; 127% in the data set with GM16216 [22]; 128% with GM15850 [23]; 137% with GM15850 [24]; 127% in the data set with GM15850 [25]; 118% with GM15850 [26]. Also, the Activity with GM16216 [27] worked out at 123%; in the data set with GM15850 [28], 127%; in the data set with GM16216 [29] it was 128%; in the data set with GM16216 [30] it was 120%; in the data set with GM15850 [31], 116%; with GM16216 [32] it was 127%. Further, the Activity in the data set on GM16216 [33] worked out at 116%; with GM16216 [34], 114%.
